Source: patent EP4483904A1, “POLYOXOMETALATES AS MEMBRANE CARRIERS” (Universität Wien, priority 2023, dated 2025)

System: CHO-K1 cells
Assay: Cellular viability assay (MTT assay, resazurin readout)
Assay type: cell-based
Details: 10 µM and below, after 24 h
Method: For MTT assays in presence of activators, CHO-K1 cells were incubated in Ham's F-12 medium containing 10 % fetal bovine serum and 1.0 % penicillin streptomycin at 37 °C in a 5 % CO2 for 24 hours. CHO-K1 cells were dispersed in a 96-well flat bottom tissue culture treated plates (Eppendorf) at density of 5×10^3 cells/well (per 100 µL) and incubated in Ham's F-12 containing 10 % (v/v) fetal bovine serum at 37 °C in a 5 % CO2 incubator for 12 h to allow cell adhesion. Then, cells were incubated with POM, B12Br12^2-, or PyBu (10 µM, 50 µM, 100 µM) for another 24 h. After this incubation time, 20 µL resazurin solution (0.15 mg/mL) was added to cells and incubated for another 3 h. Finally, the plates were read at λem = 590 nm (λex = 560 nm) using a JASCO fluorometer FP-8500.
The cell viability was evaluated by the following equation: Cells viability = (FIsample −FIblank)/(FIcontrol −FIblank) × 100% [formula]
Where, FIsample is the fluorescence intensity of cells incubated with different compounds, FIblank is the fluorescence intensity of medium, and FIcontrol is the fluorescence intensity of cells in absence of any compound.

K4[α-P^VV^VW^VI11O40]·4H2O [[PVW11]^4-]
viability: ~80%

K4[α-Si^IVMo^VIW^VI11O40]·24H2O [[SiMoW11]^4-]
viability: ~80%
